# Laboratory results: ChEMBL document CHEMBL1201862, “PubChem BioAssay data set” (2004)
# Calls of active or inactive are those of the source.
# How the values were obtained:
# [1] = biological target: Multidrug resistance protein CDR1 (Candida albicans, UniProt P43071); experiment: CaCDR1 efflux pump inhibitors in yeast, dose response, S. cerevisiae AD1-8u, singleplex, Cherry Pick1 hits (AID 588606); format: functional
# [2] = biological target: T1, Bcl-2-related protein A1 (Mus musculus, UniProt Q07440); format: functional;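 note: confirmatory dose–response counterscreen on Bfl-1, used to check hits from a UBC13 polyubiquitin inhibitor campaign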
# T1 sequence (Q07440 whole entry): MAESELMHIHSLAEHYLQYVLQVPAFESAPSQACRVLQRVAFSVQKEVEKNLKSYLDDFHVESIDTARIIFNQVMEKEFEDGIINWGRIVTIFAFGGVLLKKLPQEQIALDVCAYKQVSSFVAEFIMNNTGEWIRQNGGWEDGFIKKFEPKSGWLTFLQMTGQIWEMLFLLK
# [3] = biological target: T2, Ubiquitin-conjugating enzyme E2 N (Homo sapiens, UniProt P61088); format: functional
# T2 sequence (P61088 whole entry): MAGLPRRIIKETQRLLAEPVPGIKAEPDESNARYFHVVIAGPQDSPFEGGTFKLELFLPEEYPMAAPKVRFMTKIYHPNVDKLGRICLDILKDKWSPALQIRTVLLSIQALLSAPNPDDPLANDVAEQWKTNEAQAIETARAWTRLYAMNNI
# [4] = biological target: T3, CAAX prenyl protease 2 (Saccharomyces cerevisiae S288c, UniProt Q03530); format: biochemical
# T3 sequence (Q03530 whole entry): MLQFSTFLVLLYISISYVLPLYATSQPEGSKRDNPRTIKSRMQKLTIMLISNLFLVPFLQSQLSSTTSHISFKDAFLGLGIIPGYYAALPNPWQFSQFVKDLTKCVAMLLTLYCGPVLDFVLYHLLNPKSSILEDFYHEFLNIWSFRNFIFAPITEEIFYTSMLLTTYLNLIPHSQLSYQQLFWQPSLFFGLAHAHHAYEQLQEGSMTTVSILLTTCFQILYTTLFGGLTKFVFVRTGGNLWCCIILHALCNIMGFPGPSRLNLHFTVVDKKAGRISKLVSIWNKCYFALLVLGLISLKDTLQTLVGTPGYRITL
# [5] = biological target: T2, Ubiquitin-conjugating enzyme E2 N; format: functional; remark: listed apart in the source
# [6] = biological target: T4, Hexokinase HKDC1 (Homo sapiens, UniProt Q2TB90); experiment: HKDC1 hexokinase inhibitors, dose response, biochemical, W721R variant (AID 504729); format: functional
# T4 sequence (Q2TB90 whole entry): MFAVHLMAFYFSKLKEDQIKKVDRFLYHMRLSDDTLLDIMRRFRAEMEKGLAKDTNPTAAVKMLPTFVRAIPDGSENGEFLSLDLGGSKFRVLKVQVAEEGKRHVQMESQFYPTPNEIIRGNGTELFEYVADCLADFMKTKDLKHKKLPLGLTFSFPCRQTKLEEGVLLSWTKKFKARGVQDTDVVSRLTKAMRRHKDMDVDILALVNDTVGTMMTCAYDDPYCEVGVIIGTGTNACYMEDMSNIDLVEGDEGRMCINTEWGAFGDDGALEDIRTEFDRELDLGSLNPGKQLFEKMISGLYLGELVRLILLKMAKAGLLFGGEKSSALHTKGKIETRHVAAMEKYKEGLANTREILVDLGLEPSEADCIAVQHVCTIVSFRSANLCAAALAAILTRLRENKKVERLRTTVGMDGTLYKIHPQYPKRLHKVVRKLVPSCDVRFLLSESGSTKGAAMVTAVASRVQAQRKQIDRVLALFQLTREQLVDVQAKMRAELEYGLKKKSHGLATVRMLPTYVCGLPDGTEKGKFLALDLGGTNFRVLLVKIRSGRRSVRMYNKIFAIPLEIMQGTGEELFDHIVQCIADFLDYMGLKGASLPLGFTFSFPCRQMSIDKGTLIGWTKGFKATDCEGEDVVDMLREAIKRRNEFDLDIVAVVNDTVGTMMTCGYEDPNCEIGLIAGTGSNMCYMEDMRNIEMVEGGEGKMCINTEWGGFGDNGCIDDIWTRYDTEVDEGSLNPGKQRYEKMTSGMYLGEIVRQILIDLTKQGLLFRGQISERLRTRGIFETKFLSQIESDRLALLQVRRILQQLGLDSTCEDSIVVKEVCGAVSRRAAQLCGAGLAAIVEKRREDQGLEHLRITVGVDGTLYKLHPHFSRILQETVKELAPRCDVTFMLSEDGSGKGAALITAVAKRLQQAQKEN
# [7] = biological target: ATP-dependent molecular chaperone HSP82 (Candida albicans (strain WO-1) (Yeast), UniProt C4YTQ8); experiment: loss of DOC-induced GRE-beta-galactosidase reporter signal, dose response, Hsp90 inhibitor project, S. cerevisiae, luminescence (AID 2400); format: functional, cell-based;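 note: beta-galactosidase luminescence from glucocorticoid response element reporter as proxy for Hsp90 function; inhibitor potency where signal loss means Hsp90 inhibition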
# Sequence of ATP-dependent molecular chaperone HSP82 (C4YTQ8 whole entry): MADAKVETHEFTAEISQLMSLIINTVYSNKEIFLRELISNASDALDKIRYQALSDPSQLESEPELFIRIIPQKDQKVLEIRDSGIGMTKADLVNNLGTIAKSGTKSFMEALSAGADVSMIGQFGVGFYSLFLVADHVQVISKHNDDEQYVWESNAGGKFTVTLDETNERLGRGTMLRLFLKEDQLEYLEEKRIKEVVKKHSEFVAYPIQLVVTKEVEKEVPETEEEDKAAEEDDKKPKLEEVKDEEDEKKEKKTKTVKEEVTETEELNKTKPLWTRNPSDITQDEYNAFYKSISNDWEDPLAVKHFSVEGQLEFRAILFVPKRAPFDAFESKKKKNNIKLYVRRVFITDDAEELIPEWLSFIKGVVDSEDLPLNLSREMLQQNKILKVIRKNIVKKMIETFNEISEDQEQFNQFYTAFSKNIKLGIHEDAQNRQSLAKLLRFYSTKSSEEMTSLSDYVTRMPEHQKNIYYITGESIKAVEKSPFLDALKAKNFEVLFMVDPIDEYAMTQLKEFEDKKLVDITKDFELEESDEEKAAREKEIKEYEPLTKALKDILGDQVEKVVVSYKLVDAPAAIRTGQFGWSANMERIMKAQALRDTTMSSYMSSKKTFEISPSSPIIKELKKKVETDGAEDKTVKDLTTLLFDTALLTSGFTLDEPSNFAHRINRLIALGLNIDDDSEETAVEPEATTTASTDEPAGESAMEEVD
# [8] = biological target: Melanocortin receptor 4 (Homo sapiens, UniProt P32245); experiment: MC4R antagonist potency on cAMP, dose response, cell-based, TR-FRET, biased antagonists (AID 602298); format: functional;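 note: antagonist potency against agonist-stimulated cAMP production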
# Sequence of Melanocortin receptor 4 (P32245 whole entry, the tested form may be a part): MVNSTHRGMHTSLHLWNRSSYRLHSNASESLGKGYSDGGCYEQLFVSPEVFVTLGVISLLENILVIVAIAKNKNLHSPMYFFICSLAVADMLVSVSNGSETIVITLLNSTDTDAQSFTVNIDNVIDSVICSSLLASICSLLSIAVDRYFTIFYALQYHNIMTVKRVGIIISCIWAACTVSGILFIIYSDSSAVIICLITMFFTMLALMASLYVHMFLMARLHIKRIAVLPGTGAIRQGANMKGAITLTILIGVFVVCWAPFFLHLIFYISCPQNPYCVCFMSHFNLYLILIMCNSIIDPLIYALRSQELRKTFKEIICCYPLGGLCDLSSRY
# [9] = biological target: T5, Hepatocyte nuclear factor 4-alpha (Homo sapiens, UniProt P41235); format: functional, cell-based;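 note: biochemical luminescence-based dose-response counterscreen measuring inhibition of HNF4 dimerization, run alongside a screen for blockers of ABHD5–perilipin-5 interaction; split luciferase complementation of HNF4 fusion proteins in cell lysate measuring dimerization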
# T5 sequence (P41235 whole entry): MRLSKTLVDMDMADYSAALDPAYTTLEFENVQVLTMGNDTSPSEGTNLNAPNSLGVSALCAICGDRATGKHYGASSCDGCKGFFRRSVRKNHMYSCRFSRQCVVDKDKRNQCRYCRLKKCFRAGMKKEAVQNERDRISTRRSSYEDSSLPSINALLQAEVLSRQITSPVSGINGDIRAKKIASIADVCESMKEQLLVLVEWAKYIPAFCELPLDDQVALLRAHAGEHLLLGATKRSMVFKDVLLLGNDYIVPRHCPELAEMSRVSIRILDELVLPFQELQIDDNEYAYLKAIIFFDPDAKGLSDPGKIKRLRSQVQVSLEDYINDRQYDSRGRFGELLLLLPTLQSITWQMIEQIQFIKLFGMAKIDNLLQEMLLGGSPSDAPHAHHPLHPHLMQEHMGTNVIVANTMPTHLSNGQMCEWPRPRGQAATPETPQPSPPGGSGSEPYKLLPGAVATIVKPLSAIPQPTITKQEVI
# [10] = biological target: T6, DNA repair protein RAD52 homolog (Homo sapiens, UniProt P43351); format: functional, biochemical
# T6 sequence (P43351 whole entry): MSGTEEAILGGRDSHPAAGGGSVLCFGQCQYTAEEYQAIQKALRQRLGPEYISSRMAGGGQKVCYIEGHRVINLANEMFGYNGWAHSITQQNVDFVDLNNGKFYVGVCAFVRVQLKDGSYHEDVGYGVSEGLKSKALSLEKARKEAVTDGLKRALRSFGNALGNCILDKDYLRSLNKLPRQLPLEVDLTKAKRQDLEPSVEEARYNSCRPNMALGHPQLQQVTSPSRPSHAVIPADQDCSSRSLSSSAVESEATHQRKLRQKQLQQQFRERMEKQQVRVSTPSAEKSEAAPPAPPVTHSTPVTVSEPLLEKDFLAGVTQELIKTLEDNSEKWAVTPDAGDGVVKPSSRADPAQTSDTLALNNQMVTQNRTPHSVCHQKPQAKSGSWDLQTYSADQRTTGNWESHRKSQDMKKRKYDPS
# [11] = biological target: Paired box protein Pax-8 (Homo sapiens, UniProt Q06710); experiment: inhibitors of PAX8-driven TPO luciferase reporter, dose response, RMG-I cells, cherry-pick (AID 687027); format: functional, cell-based;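 note: luciferase reporter driven by Pax8 target thyroperoxidase promoter measured by SteadyGlo luminescence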
# Sequence of Paired box protein Pax-8 (Q06710 whole entry): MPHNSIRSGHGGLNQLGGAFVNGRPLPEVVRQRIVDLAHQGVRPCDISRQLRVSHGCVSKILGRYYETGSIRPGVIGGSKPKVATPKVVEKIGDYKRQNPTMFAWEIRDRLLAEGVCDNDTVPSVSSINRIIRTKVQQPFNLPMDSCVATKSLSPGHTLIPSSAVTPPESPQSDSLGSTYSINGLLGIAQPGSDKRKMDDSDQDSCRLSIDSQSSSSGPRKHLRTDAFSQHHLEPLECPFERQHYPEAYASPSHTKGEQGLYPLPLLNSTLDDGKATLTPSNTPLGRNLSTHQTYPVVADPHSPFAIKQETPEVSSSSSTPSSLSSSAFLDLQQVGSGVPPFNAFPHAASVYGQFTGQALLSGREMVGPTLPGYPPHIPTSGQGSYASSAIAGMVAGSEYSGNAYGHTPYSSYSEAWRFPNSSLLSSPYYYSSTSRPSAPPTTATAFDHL
# [12] = biological target: T7, Cytochrome P450 1A2 (Homo sapiens, UniProt P05177);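 note: PubChem cytochrome P450 panel assay, CYP1A2 panel member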
# T7 sequence (P05177 whole entry): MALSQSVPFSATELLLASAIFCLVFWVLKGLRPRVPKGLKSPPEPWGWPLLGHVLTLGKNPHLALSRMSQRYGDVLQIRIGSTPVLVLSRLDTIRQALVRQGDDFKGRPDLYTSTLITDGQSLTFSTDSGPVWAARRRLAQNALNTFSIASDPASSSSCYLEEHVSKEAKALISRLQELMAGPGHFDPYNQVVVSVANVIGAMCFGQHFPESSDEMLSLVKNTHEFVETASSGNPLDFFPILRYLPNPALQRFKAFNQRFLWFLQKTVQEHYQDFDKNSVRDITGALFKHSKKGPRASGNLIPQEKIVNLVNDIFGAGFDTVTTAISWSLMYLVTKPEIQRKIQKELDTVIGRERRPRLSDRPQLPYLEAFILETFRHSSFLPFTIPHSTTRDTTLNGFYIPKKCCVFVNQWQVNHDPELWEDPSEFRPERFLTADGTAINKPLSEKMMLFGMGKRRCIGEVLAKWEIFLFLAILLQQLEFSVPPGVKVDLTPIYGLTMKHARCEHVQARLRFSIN
# [13] = biological target: Cytochrome P450 2C9 (Homo sapiens, UniProt P11712)
# Sequence of Cytochrome P450 2C9 (P11712 whole entry): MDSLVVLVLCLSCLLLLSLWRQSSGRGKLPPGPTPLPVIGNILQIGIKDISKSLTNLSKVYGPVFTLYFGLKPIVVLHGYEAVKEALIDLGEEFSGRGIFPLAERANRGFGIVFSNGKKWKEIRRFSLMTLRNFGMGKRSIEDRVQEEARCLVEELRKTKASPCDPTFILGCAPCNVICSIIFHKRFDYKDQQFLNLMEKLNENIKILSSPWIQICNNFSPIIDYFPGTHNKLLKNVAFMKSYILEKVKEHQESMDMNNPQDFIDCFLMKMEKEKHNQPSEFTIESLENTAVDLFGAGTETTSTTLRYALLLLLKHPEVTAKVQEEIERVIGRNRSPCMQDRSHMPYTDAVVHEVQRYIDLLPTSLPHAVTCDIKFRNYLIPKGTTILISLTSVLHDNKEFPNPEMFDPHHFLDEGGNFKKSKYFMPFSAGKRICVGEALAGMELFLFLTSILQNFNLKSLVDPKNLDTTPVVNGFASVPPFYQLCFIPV
# [14] = biological target: Dual specificity tyrosine-phosphorylation-regulated kinase 1A (Rattus norvegicus, UniProt Q63470); format: biochemical, Homo sapiens
# [15] = biological target: Protein disulfide-isomerase (Homo sapiens, UniProt P07237); experiment: PDI inhibitors, insulin aggregation turbidity, dose response, biochemical, absorbance, cherry-picked samples (AID 602350); format: functional
# Sequence of Protein disulfide-isomerase (P07237 whole entry): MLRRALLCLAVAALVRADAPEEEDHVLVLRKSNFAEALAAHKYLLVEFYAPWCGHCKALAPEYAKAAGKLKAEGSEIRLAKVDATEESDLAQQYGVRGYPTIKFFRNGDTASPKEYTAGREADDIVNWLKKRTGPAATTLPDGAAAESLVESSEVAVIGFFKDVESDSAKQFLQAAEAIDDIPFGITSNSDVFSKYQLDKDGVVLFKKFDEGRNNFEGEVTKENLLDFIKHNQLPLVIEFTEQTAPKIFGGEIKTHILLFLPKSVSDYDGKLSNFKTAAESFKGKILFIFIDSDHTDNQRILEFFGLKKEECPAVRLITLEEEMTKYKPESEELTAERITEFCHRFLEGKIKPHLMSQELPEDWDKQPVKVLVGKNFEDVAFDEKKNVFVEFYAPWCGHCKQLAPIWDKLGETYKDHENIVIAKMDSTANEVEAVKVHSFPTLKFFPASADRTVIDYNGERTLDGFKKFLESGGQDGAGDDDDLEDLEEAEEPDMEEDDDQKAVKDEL
# [16] = nonselective inhibitors of cellular cAMP signaling, dose response, counter-screen for MC4R biased antagonist project, cell-based, TR-FRET cAMP detection (AID 602305); format: functional;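 note: U2OS cells stimulated with forskolin near its EC80 as the cAMP inducer; potency is for inhibition of forskolin-stimulated cAMP signaling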
# [17] = biological target: Serine/threonine-protein kinase D2 (Homo sapiens, UniProt Q9BZL6); format: functional;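 note: measured against PRKD2 as one member of a kinome-wide kinase profiling panel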
# [18] = biological target: Serine/threonine-protein kinase TAO1 (Homo sapiens, UniProt Q7L7X3); format: functional
# Sequence of Serine/threonine-protein kinase TAO1 (Q7L7X3 whole entry): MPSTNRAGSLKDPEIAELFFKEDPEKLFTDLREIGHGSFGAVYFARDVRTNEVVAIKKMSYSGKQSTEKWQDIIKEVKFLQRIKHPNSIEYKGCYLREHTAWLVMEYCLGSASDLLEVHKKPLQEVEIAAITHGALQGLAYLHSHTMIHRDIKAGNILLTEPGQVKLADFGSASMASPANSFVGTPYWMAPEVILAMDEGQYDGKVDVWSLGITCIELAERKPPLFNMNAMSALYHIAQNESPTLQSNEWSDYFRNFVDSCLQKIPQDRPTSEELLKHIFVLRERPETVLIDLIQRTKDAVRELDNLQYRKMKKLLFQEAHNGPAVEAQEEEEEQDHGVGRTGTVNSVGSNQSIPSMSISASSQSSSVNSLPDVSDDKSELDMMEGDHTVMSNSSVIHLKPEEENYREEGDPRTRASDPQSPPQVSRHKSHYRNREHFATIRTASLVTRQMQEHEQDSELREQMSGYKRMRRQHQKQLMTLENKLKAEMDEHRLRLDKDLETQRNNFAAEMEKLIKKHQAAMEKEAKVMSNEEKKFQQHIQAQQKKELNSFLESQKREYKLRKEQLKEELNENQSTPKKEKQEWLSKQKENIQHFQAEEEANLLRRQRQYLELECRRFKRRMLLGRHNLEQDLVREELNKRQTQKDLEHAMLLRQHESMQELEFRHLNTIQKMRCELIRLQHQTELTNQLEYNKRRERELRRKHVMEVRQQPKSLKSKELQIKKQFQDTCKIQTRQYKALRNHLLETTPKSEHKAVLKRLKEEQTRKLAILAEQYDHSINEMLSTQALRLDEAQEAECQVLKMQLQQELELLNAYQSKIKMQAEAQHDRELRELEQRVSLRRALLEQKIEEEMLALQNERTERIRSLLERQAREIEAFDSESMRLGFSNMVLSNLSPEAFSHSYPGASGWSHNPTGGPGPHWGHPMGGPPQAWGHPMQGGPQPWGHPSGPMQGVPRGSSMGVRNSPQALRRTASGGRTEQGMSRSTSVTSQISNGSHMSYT
# [19] = HeLa 2N DNA content increase, dose response, cell-based, IC50 (AID 1117349); format: functional
# [20] = HeLa 4N DNA content increase, dose response, cell-based, IC50 (AID 1117351); format: functional
# [21] = biological target: T8, Insulin-degrading enzyme (Homo sapiens, UniProt P14735); experiment: activators of recombinant IDE enzyme, dose response, counter-screen for IDE activator project, biochemical, fluorescence polarization (AID 588681)
# T8 sequence (P14735 whole entry): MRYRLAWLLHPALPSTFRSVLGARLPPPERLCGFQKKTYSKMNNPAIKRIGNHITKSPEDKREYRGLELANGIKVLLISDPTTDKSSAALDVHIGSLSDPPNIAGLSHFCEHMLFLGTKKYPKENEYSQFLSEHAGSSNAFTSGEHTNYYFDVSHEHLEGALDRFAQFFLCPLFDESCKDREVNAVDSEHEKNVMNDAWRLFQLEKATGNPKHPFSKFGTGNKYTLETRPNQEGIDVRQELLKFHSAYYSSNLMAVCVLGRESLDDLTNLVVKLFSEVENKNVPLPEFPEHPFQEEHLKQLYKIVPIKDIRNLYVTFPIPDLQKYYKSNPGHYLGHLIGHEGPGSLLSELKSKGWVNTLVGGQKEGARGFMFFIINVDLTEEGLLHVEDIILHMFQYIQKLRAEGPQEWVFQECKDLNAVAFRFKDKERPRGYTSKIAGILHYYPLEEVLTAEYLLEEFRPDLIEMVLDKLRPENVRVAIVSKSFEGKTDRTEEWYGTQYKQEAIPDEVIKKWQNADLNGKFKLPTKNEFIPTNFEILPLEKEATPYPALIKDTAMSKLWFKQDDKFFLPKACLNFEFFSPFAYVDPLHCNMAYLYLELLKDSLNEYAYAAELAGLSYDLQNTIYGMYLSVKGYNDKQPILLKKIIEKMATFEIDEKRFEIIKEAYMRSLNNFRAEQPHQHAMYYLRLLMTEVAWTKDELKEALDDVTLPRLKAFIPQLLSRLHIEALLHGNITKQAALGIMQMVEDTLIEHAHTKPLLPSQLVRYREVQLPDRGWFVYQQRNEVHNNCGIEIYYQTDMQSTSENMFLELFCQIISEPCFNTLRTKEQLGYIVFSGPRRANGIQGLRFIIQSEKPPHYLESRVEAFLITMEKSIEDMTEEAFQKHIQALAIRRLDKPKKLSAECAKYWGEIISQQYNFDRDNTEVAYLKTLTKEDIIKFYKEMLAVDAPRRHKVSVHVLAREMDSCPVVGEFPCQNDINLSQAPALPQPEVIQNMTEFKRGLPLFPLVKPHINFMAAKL
# [22] = biological target: T8, Insulin-degrading enzyme; experiment: activators of endogenous IDE in HEK cells, dose response, cell-based, fluorescence polarization (AID 588439); format: functional
# [23] = tested on: HEK293; experiment: HEK cell cytotoxicity by LDH release, dose response, cytotoxicity control for IDE activator project, fluorescence, HEK cells (AID 588440); format: functional, cell-based; conditions: Homo sapiens;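 note: cytotoxicity by LDH release measuring loss of membrane integrity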
# [24] = tested on: HEK293; experiment: optical interference in Abeta FP readout, dose response, artefact control for IDE activator project, biochemical, fluorescence polarization (AID 588442); format: functional, cell-based; conditions: Homo sapiens
# [25] = Luminescence Cell-Based Dose Retest to Confirm Inhibitors of Cancer Stem Cells. [Related pubchem assays (depositor defined):AID2717, AID2721]; format: functional; conditions: Homo sapiens
# Sequence of Multidrug resistance protein CDR1 (P43071 whole entry, looked up): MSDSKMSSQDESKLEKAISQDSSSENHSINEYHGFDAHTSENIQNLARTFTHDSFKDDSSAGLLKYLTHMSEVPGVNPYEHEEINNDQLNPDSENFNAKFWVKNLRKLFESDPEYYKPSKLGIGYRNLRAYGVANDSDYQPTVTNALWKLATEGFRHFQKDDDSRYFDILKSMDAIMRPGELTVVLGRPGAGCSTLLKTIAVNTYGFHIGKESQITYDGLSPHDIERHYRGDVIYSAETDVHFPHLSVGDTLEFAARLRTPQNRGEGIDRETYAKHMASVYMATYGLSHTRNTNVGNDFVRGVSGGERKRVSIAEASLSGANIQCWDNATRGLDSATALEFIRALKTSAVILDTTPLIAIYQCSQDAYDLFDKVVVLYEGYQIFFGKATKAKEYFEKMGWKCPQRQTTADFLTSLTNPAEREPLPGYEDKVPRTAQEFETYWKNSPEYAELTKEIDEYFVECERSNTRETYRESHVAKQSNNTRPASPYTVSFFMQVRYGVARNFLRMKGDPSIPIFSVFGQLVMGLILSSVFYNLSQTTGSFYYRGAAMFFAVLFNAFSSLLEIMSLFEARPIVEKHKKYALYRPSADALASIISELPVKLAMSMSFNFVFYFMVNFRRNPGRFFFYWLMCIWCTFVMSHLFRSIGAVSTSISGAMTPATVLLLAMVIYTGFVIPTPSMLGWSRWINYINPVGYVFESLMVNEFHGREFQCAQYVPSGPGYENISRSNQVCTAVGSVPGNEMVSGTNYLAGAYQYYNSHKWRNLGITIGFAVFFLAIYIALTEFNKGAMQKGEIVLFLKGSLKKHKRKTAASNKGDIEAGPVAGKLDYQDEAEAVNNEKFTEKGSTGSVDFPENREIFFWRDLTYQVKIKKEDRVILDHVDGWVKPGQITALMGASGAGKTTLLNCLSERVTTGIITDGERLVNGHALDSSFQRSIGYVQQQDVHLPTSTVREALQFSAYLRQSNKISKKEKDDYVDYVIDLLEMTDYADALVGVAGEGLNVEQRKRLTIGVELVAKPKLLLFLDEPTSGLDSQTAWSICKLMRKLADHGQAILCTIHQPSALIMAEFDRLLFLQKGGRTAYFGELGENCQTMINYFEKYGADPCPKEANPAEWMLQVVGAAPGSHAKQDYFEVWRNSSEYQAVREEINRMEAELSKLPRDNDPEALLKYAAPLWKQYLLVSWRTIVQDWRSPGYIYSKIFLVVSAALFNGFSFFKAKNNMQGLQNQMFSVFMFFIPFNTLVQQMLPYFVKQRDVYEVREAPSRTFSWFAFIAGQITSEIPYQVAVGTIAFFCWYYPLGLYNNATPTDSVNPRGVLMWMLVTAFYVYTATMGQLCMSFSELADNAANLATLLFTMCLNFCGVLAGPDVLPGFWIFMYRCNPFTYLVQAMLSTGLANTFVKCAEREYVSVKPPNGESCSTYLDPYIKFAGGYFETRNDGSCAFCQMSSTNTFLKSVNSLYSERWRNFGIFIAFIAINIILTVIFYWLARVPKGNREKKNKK
structure (smiles),measurement,setting,value
CCOc1ccc(NC(=O)CSc2nnc(Cc3cccn3C)n2-c2ccc(F)cc2)cc1,EC50,[1],0.013 µM (active)
[H]/N=C(\N/C(=N/[H])NCCCCCCNC(=N)NC(=N)Nc1ccc(Cl)cc1)Nc1ccc(Cl)cc1 [CHLORHEXIDINE],IC50,[2],> 20 µM (inactive)
same,IC50,[3],3.01 µM (active)
same,AC50,[4],5.69 µM (active)
same,IC50,[5],2.2 µM (active)
same,IC50,[6],8.99 µM (active)
same,EC50,[7],> 150 µM (inactive)
same,IC50,[8],2 µM (active)
same,IC50,[9],23.5 µM (inactive)
same,AC50,[10],1.7 µM (active)
same,AC50,[11],5.69 µM (active)
same,AC50,[12],15.8 µM (inconclusive)
same,AC50,[13],15.8 µM (inconclusive)
C[C@@H]1O[C@@H](OC[C@@H]2O[C@H](Oc3c(-c4ccc(O)cc4)oc4cc(O)cc(O)c4c3=O)[C@@H](O)[C@H](O)[C@H]2O)[C@H](O)[C@H](O)[C@H]1O,AC50,[14],6.66 µM (active)
same,AC50,[15],3.51 µM (active)
CCc1cc2ccc(OC)cc2nc1SCC(=O)N1CCN(C(=O)c2ccco2)CC1,IC50,[8],> 64.6 µM (inactive)
same,IC50,[16],> 64.6 µM (inactive)
Clc1ccc(Nc2nnc(Cc3ccncc3)c3ccccc23)cc1 [VATALANIB],Ki,[17],> 10 µM (inactive)
same,Ki,[18],> 7.94 µM (inactive)
same,IC50,[19],> 10 µM (inactive)
same,IC50,[20],> 10 µM (inactive)
CCc1ccc(-c2nc(C[S+]([O-])CC(=O)O)c(C)o2)cc1 (stereo not given),EC50,[21],> 54.7 µM (inactive)
same,EC50,[22],> 54.7 µM (inactive)
same,IC50,[23],> 89.2 µM (inactive)
same,EC50,[24],> 55.9 µM (inactive)
Cc1cccc(N2CCN(C(S)=Nc3ccc4nc(N5CCN(C)CC5)cc(C)c4c3)CC2C)c1 (stereo not given),AC50,[25],7.58 µM (active)
same,EC50,[21],> 54.7 µM (inactive)
same,EC50,[22],> 54.7 µM (inactive)
same,IC50,[23],8.41 µM (active)
same,EC50,[24],> 54.7 µM (inactive)
